From patent US11419902B2, “Compositions comprising bacterial strains” (4D Pharma Research Limited, priority 2018, dated 2022)

Assays:
451Lu melanoma cell line = assay: Clonogenic survival of 451Lu cell line; format: cell-based; details: relative to both negative controls (cell line only, and YCFA+ +DMSO)
Description: Cells were trypsinized and 200 cells/well were seeded in 12-well plates. After 48 h cells were treated with the appropriate drugs in absence (YCFA+) or presence of 10% bacterial supernatant and were re-fed every three days. On day 21 after seeding, cells were fixed in ice-cold methanol and stained with Crystal Violet blue. […] were counted and survival fraction was calculated as number of colonies divided by the number of plated cells (plating efficiency) of treated divided by the plating efficiency of control.
The effects of the following treatments were assessed on the 451Lu melanoma cell line (V600E oncogenic mutation in BRAF): (1) MRx0029; (2) Vemurafenib (VEMU) in YFCA+ medium; (3) VEMU and MRx0029; (4) Azacytidine-C (Aza-c) in YFCA+ medium; (5) Aza-c and MRx0029; (6) VEMU, Aza-c and MRx0029.

β3Tubulin = β3Tubulin expression in SH-SY5Y cells (immunostaining, immunoblotting); format: cell-based; details: undifferentiated SH-SY5Y cells, 10% bacterial supernatant 24 h, vs untreated cells
Description: Cells were seeded onto 8-well chamber slides (Marienfeld Laboratory Glassware) at 5×10^4 cells/well overnight and were treated with 10% bacterial supernatant for 24 h. For differentiation, cells were treated with 10 nM RA for 5 days before treating with cell-free bacterial supernatant for 24 h.
Afterwards, the cells were fixed with 4% paraformaldehyde in PBS for 20 minutes at room temperature (RT). Fixed cells were washed with PBS, and permeabilized with 1% Triton X-100 in PBS for 10 minutes. After washing with PBS, the slides were incubated with blocking buffer (4% BSA/PBS) for 1 h at RT before adding anti-MAP2 antibody or β3-tubulin (sc-74421 and sc-80005 respectively, Santa Cruz Biotechnology Inc) diluted in 1% BSA/PBS for 12 h at 4° C. They were then washed twice with PBS, followed by incubation with Alexa Flour 488 conjugated anti-mouse (Molecular Probes Inc) and Alexa Flour 594 conjugated Phalloidin (ab176757, Abcam) for 1 h at RT. […]
SH-SY5Y cells cultured under the indicated conditions described above, treated with MRx0029 for 24 h and then lysed in RIPA buffer containing cocktail of protease inhibitors (Roche Diagnostics, UK). […] The blots were then incubated with the appropriate horseradish peroxidase (HRP)-conjugated secondary antibody, and proteins were detected by chemiluminescence detection kit (Pierce Biotechnology, Rockford, Ill.). […]

HDAC = HDAC inhibition on HT-29 cell lysate; format: biochemical
Description: Pure cultures of bacteria were grown anaerobically in YCFA+ broth until they reached their stationary growth phase. Cultures were centrifuged at 5,000×g for 5 minutes and the cell-free supernatant (CFS) was filtered using a […] (Millipore, UK). 1 mL aliquots of the CFS were stored at −80° C. until use. Sodium butyrate, hexanoic and valeric acid were obtained from Sigma Aldrich (UK) and suspensions were prepared in YCFA+ broth.
To investigate which metabolites were responsible for the strain-induced HDAC inhibition, different concentrations of hexanoic acid, valeric acid and sodium butyrate were measured for their HDAC inhibition on whole HT-29 cells and on HT-29 cell lysate.

How did the clonogenic survival (451Lu melanoma cell line) turn out when Megasphaera massiliensis MRx0029 was run?
The clonogenic survival was “decreased clonogenic survival”.

What about the “expression of β3Tubulin” value (β3Tubulin) of the same substance?
Its value is “increases the expression of β3Tubulin”.

And the “HDAC inhibition on HT-29 cell lysate” value (HDAC)?
Its value is “strong HDAC inhibition”.
